Experimental data taken from patent publication US20240287021A1, “QUATERNARY AMMONIUM SALT COMPOUND, PREPARATION METHOD THEREFOR AND USE THEREOF” (YICHANG HUMANWELL PHARMACEUTICAL CO., LTD., priority 2021, published 2024).
Structures can show the parent of a compound that is named as a salt.

Tests used:
[1] = tested on: rat subcutaneous infiltration models; assay: Subcutaneous infiltration local anesthetic effect (Von Frey stinging stimulus on back skin); format: in vivo; conditions: SD rats
Method: SD rats (half male and half female) with a body weight of 190-210 grams were shaved and sterilized on the back, then a circle with a diameter of about 1.5 cm was drawn on one side of the bare back, and 0.5 mL of a drug-containing solution was subcutaneously injected into the skin in the center: normal saline was used as the solvent, 2 mg/mL levobupivacaine hydrochloride, 9 compounds of the present application were selected, at a concentration of 6 mg/mL (the equivalent molar concentration ranged from 8.6 to 10.1 mmol/L according to the corresponding molecular weights of the example compounds), with 10 rats in each group. Von Frey fiber filaments with 100 g strength were bound to a needle for topical skin stimulation. 1 min after drug injection, response of rats to stinging stimulus was tested. The test sites were six different points of the circle of the administration site, and whether behaviors such as skin contraction and avoidance occurred after stimulus was observed and recorded. Three points in the center of the circle and three points on the periphery of the circle were stimulated separately, and the number of occurrences of skin contraction and avoidance behavior was recorded as N/6. In terms of judgment, if there were 4 or more occurrences of avoidance and skin contraction behaviors, it was considered that the drug was ineffective; if there was a reaction on the periphery (≤3) and no reaction (≥1) in the center, it was considered that the drug was still effective; and if there was a reaction only at the points in the center, it was considered that the drug was ineffective. Each compound was tested with 10 rats.
Since the local anesthesia time longer than 72 hours may cause irreversible nerve injury, we subsequently halved (3 mg/mL) the dose of the compounds with the duration of action greater than 72 hours and then conducted an activity test to determine whether the local anesthesia effect could be restored in the skin infiltration models.

[2] = tested on: sciatic nerve; assay: Local anesthetic effect of nerve block (sciatic nerve block model, hot plate test); format: in vivo; conditions: rat, single dose 5 mL/Kg through right sciatic nerve, example compounds 6 mg/mL (8.6-10.1 mmol/L), hot plate 50°C; for Duration: levobupivacaine hydrochloride 2 mg/mL, MPE at least 50%
Method: Three groups of fully acclimatized rats, one in each group, were given to the example compounds and levobupivacaine hydrochloride positive control, respectively.
Solution preparation: 2 mg/mL levobupivacaine hydrochloride injection: 2.670 mL of 7.5 mg/mL levobupivacaine hydrochloride injection (batch number: 92S0702) was pipetted by a pipette and added into a 10 mL volumetric flask, 0.9% NaCl solution was added until the concave liquid level was flush with the scale line, and the volumetric flask was turned upside down to mix the solution well to prepare 2 mg/ml levobupivacaine hydrochloride injection. 6 mg/mL (the molar concentration calculated from the molecular weight of the example compound ranged from 8.6 to 10.1 mmol/L) example compound solution: 19.80 mg of example compound was accurately weighed and added with 3.3 mL of 0.9% NaCl solution to prepare 6 mg/mL example compound solution.
Each rat was administered or control injected at 5 mL/Kg, in a single dose through right sciatic nerve, and thereafter, the rat was placed on a hot plate of a preheated 50±0.1° C. smart hot plate apparatus. The time required for the occurrence of the behavioral phenomena of avoiding thermal stimuli, such as obvious foot lifting and foot licking on the administered side of the rat was recorded, as the hot incubation period. The allowable maximum value of the hot incubation period was controlled at 60 s. If the rat still has no foot licking after 60 s, the hind foot of the rat was lifted manually to avoid tissue injury or hyperalgesia, and 60 s was taken as the hot incubation period of the rat. After each measurement, the hot plate was wiped in time to remove possible urine and feces, and was dried for subsequent testing.
The results of the hot incubation period were expressed with maximum proportionality effect (MPE) and calculated using the following equation:
[formula] • wherein B represents the basic hot incubation period of rats, P represents the allowable maximum hot incubation period, and C represents the hot incubation period at the detection time point.
It was specified that the tested time below 50% of the maximum proportionality effect was determined to be invalid, and the test was stopped if two consecutive tests were both below 50% of the maximum proportionality effect.

[3] = 0.5 mL subcutaneous on back, compounds 6 mg/mL (8.6-10.1 mmol/L)
[4] = 0.5 mL subcutaneous on back, compounds 6 mg/mL (8.6-10.1 mmol/L), levobupivacaine hydrochloride 2 mg/mL
[5] = subcutaneous on back, compounds 3 mg/mL (4.4-5.1 mmol/L)

CCCC[N+]1(CCCCN2CCCCC2C(=O)Nc2ccc(F)cc2)CCCCC1C(=O)Nc1c(C)cccc1C (stereo not drawn) [Compound 7]
Onset time [1, 3]: 2 min | Duration [1, 4]: 52 h | Duration [2]: 30 h | Onset time [2]: 1 min

CCCCN1CCCC[C@H]1C(=O)Nc1c(C)cccc1C [Levobupivacaine hydrochloride, reference compound]
Duration [1, 4]: 4 h | Duration [1, 5]: 3 h | Duration [2]: 3 h

CCCC[N+]1(CCCCN2CCCCC2C(=O)Nc2ccc(C)cc2)CCC[C@@H]1C(=O)Nc1c(C)cccc1C (stereo partly drawn) [Compound 18]
Duration [2]: 20 h | Onset time [2]: 1 min

CCC[N+]1(CCCCCN2CCCCC2C(=O)NC2CCCCC2)CCCCC1C(=O)Nc1c(C)cccc1C (stereo not drawn) [Compound 11]
Duration [2]: 11 h | Onset time [2]: 1 min

CCCC[N+]1(CCCCN2CCCCC2C(=O)Nc2ccc(C)cc2)CCC[C@@H]1C(=O)Nc1c(C)cc(C)cc1C (stereo partly drawn) [Compound 28]
Duration [2]: 12 to 24 h | Onset time [2]: 1 min

CCCC[N+]1(CCCCN2CCCCC2C(=O)Nc2ccc(F)cc2)CCC[C@@H]1C(=O)Nc1c(C)cccc1C (stereo partly drawn) [Compound 21]
Onset time [1, 3]: 1 min | Duration [1, 4]: 57 h | Duration [2]: 24 to 48 h | Onset time [2]: 1 min

CCCC[N+]1(CCCCN2CCCCC2C(=O)Nc2ccc(C(F)(F)F)cc2)CCC[C@@H]1C(=O)Nc1c(C)cccc1C (stereo partly drawn) [Compound 20]
Duration [2]: 12 to 24 h | Onset time [2]: 1 min

CCCC[N+]1(CCCCCN2CCCCC2C(=O)NC2CCCCC2)CCCCC1C(=O)Nc1c(C)cccc1C (stereo not drawn) [Compound 6]
Duration [2]: 12 h | Onset time [2]: 1 min

CCCC[N+]1(CCCCCN2CCCCC2C(=O)Nc2ccccc2)CCCCC1C(=O)Nc1c(C)cccc1C (stereo not drawn) [Compound 2]
Duration [2]: 15 h | Onset time [2]: 1 min

CCCC[N+]1(CCCCCN2CCCCC2C(=O)Nc2ccc(F)cc2)CCCCC1C(=O)Nc1c(C)cccc1C (stereo not drawn) [Compound 3]
Duration [2]: 18 h | Onset time [2]: 1 min

CCCC[N+]1(CCCCCN2CCCCC2C(=O)Nc2ccc(C)cc2)CCCCC1C(=O)Nc1c(C)cccc1C (stereo not drawn) [Compound 4]
Onset time [1, 3]: 1 min | Duration [1, 4]: 72 to 96 h | Duration [1, 5]: 56 h | Onset time [1, 5]: 1 min | Duration [2]: 48 h | Onset time [2]: 1 min

CCCC[N+]1(CCCCCN2CCCCC2C(=O)Nc2c(C)cccc2C)CCC[C@@H]1C(=O)Nc1c(C)cccc1C (stereo partly drawn) [Compound 22]
Onset time [1, 3]: 1 min | Duration [1, 4]: 60 h | Duration [2]: 24 to 48 h | Onset time [2]: 1 min

CCCC[N+]1(CCCCN2CCCCC2C(=O)Nc2c(C)cccc2C)CCC[C@@H]1C(=O)Nc1c(C)cccc1C (stereo partly drawn) [Compound 17]
Duration [2]: 12 to 24 h | Onset time [2]: 1 min

CCCC[N+]1(CCCCCN2CCCCC2C(=O)Nc2c(C)cccc2C)CCCCC1C(=O)Nc1c(C)cccc1C (stereo not drawn) [Compound 1]
Onset time [1, 3]: 1 min | Duration [1, 4]: 55 h | Duration [2]: 24 h | Onset time [2]: 1 min

CCCC[N+]1(CCCCN2CCCCC2C(=O)Nc2ccccc2)CCCCC1C(=O)Nc1c(C)cccc1C (stereo not drawn) [Compound 8]
Onset time [1, 3]: 1 min | Duration [1, 4]: 72 to 96 h | Duration [1, 5]: 52 h | Onset time [1, 5]: 1 min | Duration [2]: 48 h | Onset time [2]: 1 min

CCCC[N+]1(CCCCCN2CCCCC2C(=O)Nc2ccc(F)cc2)CCC[C@@H]1C(=O)Nc1c(C)cc(C)cc1C (stereo partly drawn) [Compound 32]
Duration [2]: 12 to 24 h | Onset time [2]: 1 min

CCCC[N+]1(CCCCN2CCCCC2C(=O)Nc2c(C)cccc2C)CCC[C@@H]1C(=O)Nc1c(C)cc(C)cc1C (stereo partly drawn) [Compound 27]
Duration [2]: 12 to 24 h | Onset time [2]: 1 min

CCCC[N+]1(CCCCN2CCCCC2C(=O)Nc2ccc(F)cc2)CCC[C@@H]1C(=O)Nc1c(C)cc(C)cc1C (stereo partly drawn) [Compound 29]
Onset time [1, 3]: 1 min | Duration [1, 4]: 50 h | Duration [2]: 24 to 48 h | Onset time [2]: 1 min

CCCC[N+]1(CCCCN2CCCCC2C(=O)NC2CCCCC2)CCCCC1C(=O)Nc1c(C)cccc1C (stereo not drawn) [Compound 9]
Duration [2]: 24 h | Onset time [2]: 1 min

CCC[N+]1(CCCCCN2CCCCC2C(=O)Nc2ccc(C)cc2)CCCCC1C(=O)Nc1c(C)cccc1C (stereo not drawn) [Compound 12]
Onset time [1, 3]: 1 min | Duration [1, 4]: 72 to 96 h | Duration [1, 5]: 60 h | Onset time [1, 5]: 1 min | Duration [2]: 48 h | Onset time [2]: 1 min
